The values that follow come from patent US20240238423A9, “TETRAHYDROISOQUINOLINE HETEROBIFUNCTIONAL BCL-XL DEGRADERS” (Treeline Biosciences, Inc., priority 2022, published 2024).

In this experiment the target is T1, Human BCL-XL protein (N-terminal HiBiT tagged BCL-XL in HT1080 cells) (Homo sapiens, UniProt Q07817).
T1 construct: expressed in transfected cells; host or cells: HT-1080 (ATCC CCL-121), stably transduced with lentivirus pLV-UBC-N-HiBiT-BCL-XL-PGK-puro and selected with puromycin
Nature of the experiment: HiBiT based degradation assay. The format is cell-based. Conditions: HT1080 cells expressing HiBiT-BCL-XL; for Ymin (24 h) / Ymin (6 h): BCL-XL degradation normalized with DMSO control; for DC50: BCL-XL degradation. The method, boiled down:
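HT1080 cells stably transduced by lentivirus with N-terminally HiBiT-tagged human BCL-XL and kept under 1 μg/mL puromycin selection were seeded at three thousand cells per well in 40 μL RPMI 1640 into 384-well plates pre-spotted with compounds across a concentration range. Luminescence was read on a PHERAstar FSX, normalized to DMSO, and fitted with a four-parameter logistic model.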
(HiBiT is a short tag that completes a luciferase, so light tracks the accessible tagged protein.)

Molecules are shown by their SMILES. Where two headings read alike, the source gives them in different places.

T1 sequence (Q07817 whole entry): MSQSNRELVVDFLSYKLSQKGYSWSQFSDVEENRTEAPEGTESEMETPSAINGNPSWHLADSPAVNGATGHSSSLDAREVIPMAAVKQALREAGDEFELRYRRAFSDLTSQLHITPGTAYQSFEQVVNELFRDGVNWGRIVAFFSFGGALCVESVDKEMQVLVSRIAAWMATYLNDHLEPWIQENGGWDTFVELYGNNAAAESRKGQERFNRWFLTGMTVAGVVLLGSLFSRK

In the case of `Cc1c(OCC[C@@H](C)C2CCN(CC(=O)Nc3cccc4c(C5CCC(=O)NC5=O)nn(C)c34)CC2)cccc1-c1ccc(N2CCc3cccc(C(=O)Nc4nc5ccccc5s4)c3C2)nc1C(=O)O` (stereo partly drawn) [Compound 173b, 6-[8-(1,3-benzothiazol-2-ylcarbamoyl)-3,4-dihydro-1H-isoquinolin-2-yl]-3-[3-[(3R)-3-[1-[2-[[3-(2,6-dioxo-3-piperidyl)-1-methyl-indazol-7-yl]amino]-2-oxo-ethyl]-4-piperidyl]butoxy]-2-methyl-phenyl]pyridine-2-carboxylic acid], the “Ymin (24 h)” value (24 h) is on record as “B (50% ≤ Ymin < 70%)”. Besides, for the setting “24 h, read-out: EC50 (24 h)”, the DC50 was in the range of 100 to 1000 nM.

For `Cc1c(O[C@H]2CC[C@H](C[C@H](C)CCN3CCN(c4ccc5c(C6CCC(=O)NC6=O)nn(C)c5c4)CC3)CC2)cccc1-c1ccc(N2CCc3cccc(C(=O)Nc4nc5ccccc5s4)c3C2)nc1C(=O)O` (single isomer, unassigned) [Compound 307a], the “Ymin (24 h)” value (24 h) is listed as “A (Ymin < 50%)”. In addition, where the note is “24 h, read-out: EC50 (24 h)”, the DC50 is below 100 nM.

As for `Cc1cc(OCCC[C@H]2CCN(CC(=O)Nc3ccc4c(C5CCC(=O)NC5=O)nn(C)c4c3)[C@H](C)C2)ccc1-c1ccc(N2CCc3cccc(C(=O)Nc4nc5ccccc5s4)c3C2)nc1C(=O)O` (stereo partly drawn) [Compound 344c, 6-[8-(1,3-benzothiazol-2-ylcarbamoyl)-3,4-dihydro-1H-isoquinolin-2-yl]-3-[4-[3-[(2R,4S)-1-[2-[[3-(2,6-dioxo-3-piperidyl)-1-methyl-indazol-6-yl]amino]-2-oxo-ethyl]-2-methyl-4-piperidyl]propoxy]-2-methyl-phenyl]pyridine-2-carboxylic acid], the “Ymin (24 h)” value (24 h) is listed as “A (Ymin < 50%)”. Also, the DC50 (24 h, read-out: EC50 (24 h)) was below 100 nM.

For `Cc1cc(OCCCN2C[C@@H](C)N(CC(=O)N3CCN(c4cccc5c(C6CCC(=O)NC6=O)nn(C)c45)CC3)[C@@H](C)C2)ccc1-c1ccc(N2CCc3cccc(C(=O)Nc4nc5ccccc5s4)c3C2)nc1C(=O)O` (stereo partly drawn) [Compound 183a, 6-[8-(1,3-benzothiazol-2-ylcarbamoyl)-3,4-dihydro-1H-isoquinolin-2-yl]-3-[4-[3-[(3S,5R)-4-[2-[4-[3-(2,6-dioxo-3-piperidyl)-1-methyl-indazol-7-yl]piperazin-1-yl]-2-oxo-ethyl]-3,5-dimethyl-piperazin-1-yl]propoxy]-2-methyl-phenyl]pyridine-2-carboxylic acid], the “Ymin (6 h)” value (6 h) is “B (50% ≤ Ymin < 70%)”. The “Ymin (24 h)” value (24 h) is reported as “A (Ymin < 50%)”. In addition, the DC50 (6 h, read-out: EC50 (6 h)) was below 100 nM and the DC50 (24 h, read-out: EC50 (24 h)) is below 100 nM.

Turning to `Cc1c(OCCC(F)(F)C2CCN(CC(=O)Nc3cccc4c(C5CCC(=O)NC5=O)nn(C)c34)CC2)cccc1-c1ccc(N2CCc3cccc(C(=O)Nc4nc5ccccc5s4)c3C2)nc1C(=O)O` (stereo not drawn) [Compound 196, 6-(8-(benzo[d]thiazol-2-ylcarbamoyl)-3,4-dihydroisoquinolin-2(1H)-yl)-3-(3-(3-(1-(2-((3-(2,6-dioxopiperidin-3-yl)-1-methyl-1H-indazol-7-yl)amino)-2-oxoethyl)piperidin-4-yl)-3,3-difluoropropoxy)-2-methylphenyl)picolinic acid], the “Ymin (24 h)” value (24 h) is “B (50% ≤ Ymin < 70%)”. The DC50 (24 h, read-out: EC50 (24 h)) fell in the range of 100 to 1000 nM.

For the compound `Cc1c(Oc2cccc(CCCN3CCN(c4ccc5c(C6CCC(=O)NC6=O)nn(C)c5c4)CC3)c2)cccc1-c1ccc(N2CCc3cccc(C(=O)Nc4nc5ccccc5s4)c3C2)nc1C(=O)O` (stereo not drawn) [Compound 195, 6-[8-(1,3-benzothiazol-2-ylcarbamoyl)-3,4-dihydro-1H-isoquinolin-2-yl]-3-[3-[3-[3-[4-[3-(2,6-dioxo-3-piperidyl)-1-methyl-indazol-6-yl]piperazin-1-yl]propyl]phenoxy]-2-methyl-phenyl]pyridine-2-carboxylic acid], where the note is “6 h”, the “Ymin (6 h)” value is “C (Ymin ≥ 70%)”. The “Ymin (24 h)” value (24 h) is “B (50% ≤ Ymin < 70%)”. Further, the DC50 (6 h, read-out: EC50 (6 h)) is below 100 nM and the DC50 (24 h, read-out: EC50 (24 h)) is below 100 nM.

`Cc1c(OCCC[C@H]2CCN(CC(=O)Nc3ccc4c(C5CCC(=O)NC5=O)nn(C)c4c3)C2)cccc1-c1ccc(N2CCc3cccc(C(=O)Nc4nc5ccccc5s4)c3C2)nc1C(=O)O` (stereo partly drawn) [Compound 160b, 6-(8-(benzo[d]thiazol-2-ylcarbamoyl)-3,4-dihydroisoquinolin-2(1H)-yl)-3-(3-(3-((3S)-1-(2-((3-(2,6-dioxopiperidin-3-yl)-1-methyl-1H-indazol-6-yl)amino)-2-oxoethyl)pyrrolidin-3-yl)propoxy)-2-methylphenyl)picolinic acid]: the “Ymin (24 h)” value (24 h) is given as “A (Ymin < 50%)”. Further, the DC50 (24 h, read-out: EC50 (24 h)) is below 100 nM.

For `Cc1c(Oc2ccc(CCC(=O)Nc3ccc4c(C5CCC(=O)NC5=O)nn(C)c4c3)cc2)cccc1-c1ccc(N2CCc3cccc(C(=O)Nc4nc5ccccc5s4)c3C2)nc1C(=O)O` (stereo not drawn) [Compound 107, 6-[8-(1,3-benzothiazol-2-ylcarbamoyl)-3,4-dihydro-1H-isoquinolin-2-yl]-3-[3-[4-[3-[[3-(2,6-dioxo-3-piperidyl)-1-methyl-indazol-6-yl]amino]-3-oxo-propyl]phenoxy]-2-methyl-phenyl]pyridine-2-carboxylic acid], where the note is “6 h”, the “Ymin (6 h)” value is given as “C (Ymin ≥ 70%)”. Moreover, the “Ymin (24 h)” value (24 h) is reported as “C (Ymin ≥ 70%)”. Further, the DC50 fell in the range of 1000 to 10000 nM (6 h, read-out: EC50 (6 h)) and 1000 to 10000 nM (24 h, read-out: EC50 (24 h)).

Turning to `Cc1c(-c2ccc(N3CCc4cccc(C(=O)Nc5nc6ccccc6s5)c4C3)nc2C(=O)NCC(=O)Nc2ccc3c(C4CCC(=O)NC4=O)nn(C)c3c2)cnn1Cc1ccccc1` (stereo not drawn) [Compound 135, N-(1,3-benzothiazol-2-yl)-2-[5-(1-benzyl-5-methyl-pyrazol-4-yl)-6-[[2-[[3-(2,6-dioxo-3-piperidyl)-1-methyl-indazol-6-yl]amino]-2-oxo-ethyl]carbamoyl]-2-pyridyl]-3,4-dihydro-1H-isoquinoline-8-carboxamide], where the note is “6 h”, the “Ymin (6 h)” value was “B (50% ≤ Ymin < 70%)”. Also, the DC50 (6 h, read-out: EC50 (6 h)) is below 100 nM.

In the case of `Cc1c(OCCO[C@H]2C[C@H]3CC[C@@H](C2)N3CC(=O)Nc2cccc3c(C4CCC(=O)NC4=O)nn(C)c23)cccc1-c1ccc(N2CCc3cccc(C(=O)Nc4nc5ccccc5s4)c3C2)nc1C(=O)O` (stereo partly drawn) [Compound 224b, 6-(8-(benzo[d]thiazol-2-ylcarbamoyl)-3,4-dihydroisoquinolin-2(1H)-yl)-3-(3-(2-(((1R,3r,5S)-8-(2-((3-(2,6-dioxopiperidin-3-yl)-1-methyl-1H-indazol-7-yl)amino)-2-oxoethyl)-8-azabicyclo[3.2.1]octan-3-yl)oxy)ethoxy)-2-methylphenyl)picolinic acid], the “Ymin (24 h)” value (24 h) is “B (50% ≤ Ymin < 70%)”. Besides, the DC50 (24 h, read-out: EC50 (24 h)) was below 100 nM.

In the case of `Cc1c(O[C@H]2CC[C@H](CCCCN3CCN(c4ccc5c(C6CCC(=O)NC6=O)nn(C)c5c4C)CC3)CC2)cccc1-c1ccc(N2CCc3cccc(C(=O)Nc4nc5ccccc5s4)c3C2)nc1C(=O)O` (stereo partly drawn) [Compound 324a, 6-(8-(benzo[d]thiazol-2-ylcarbamoyl)-3,4-dihydroisoquinolin-2(1H)-yl)-3-(3-(((1s,4r)-4-(4-(4-(3-(2,6-dioxopiperidin-3-yl)-1,7-dimethyl-1H-indazol-6-yl)piperazin-1-yl)butyl)cyclohexyl)oxy)-2-methylphenyl)picolinic acid], under “24 h”, the “Ymin (24 h)” value was “A (Ymin < 50%)”. For the same compound, the DC50 (24 h, read-out: EC50 (24 h)) was below 100 nM.

Take `Cc1c(O[C@H]2CC[C@H](CCCC(=O)N3CCN(c4cccc5c(C6CCC(=O)NC6=O)nn(C)c45)CC3)CC2)cccc1-c1ccc(N2CCc3cccc(C(=O)Nc4nc5ccccc5s4)c3C2)nc1C(=O)O` (stereo partly drawn) [Compound 214a, 6-(8-(benzo[d]thiazol-2-ylcarbamoyl)-3,4-dihydroisoquinolin-2(1H)-yl)-3-(3-(((1s,4r)-4-(4-(4-(3-(2,6-dioxopiperidin-3-yl)-1-methyl-1H-indazol-7-yl)piperazin-1-yl)-4-oxobutyl)cyclohexyl)oxy)-2-methylphenyl)picolinic acid]: the “Ymin (24 h)” value (24 h) is “B (50% ≤ Ymin < 70%)”. For the same compound, the DC50 (24 h, read-out: EC50 (24 h)) is below 100 nM.

Consider `Cc1c(O[C@H]2CC[C@H](CCCN3CCN(c4ccc5c(C6CCC(=O)NC6=O)nn(C)c5c4)CC3)CC2)cccc1-c1ccc(N2CCc3cccc(C(=O)Nc4nc5ccccc5s4)c3C2)nc1C(=O)O` (stereo partly drawn) [Compound 148a, 6-(8-(benzo[d]thiazol-2-ylcarbamoyl)-3,4-dihydroisoquinolin-2(1H)-yl)-3-(3-(((1s,4r)-4-(3-(4-(3-(2,6-dioxopiperidin-3-yl)-1-methyl-1H-indazol-6-yl)piperazin-1-yl)propyl)cyclohexyl)oxy)-2-methylphenyl)picolinic acid], for which, for the setting “6 h”, the “Ymin (6 h)” value is listed as “B (50% ≤ Ymin < 70%)”. Further, the “Ymin (24 h)” value (24 h) is reported as “A (Ymin < 50%)”. The DC50 is below 100 nM (6 h, read-out: EC50 (6 h)) and below 100 nM (24 h, read-out: EC50 (24 h)).

As for `Cc1c(OCCC2CCN(CCCC3CCN(c4cccc5c(C6CCC(=O)NC6=O)nn(C)c45)CC3)CC2)cccc1-c1ccc(N2CCc3cccc(C(=O)Nc4nc5ccccc5s4)c3C2)nc1C(=O)O` (stereo not drawn) [Compound 288, 6-[8-(1,3-benzothiazol-2-ylcarbamoyl)-3,4-dihydro-1H-isoquinolin-2-yl]-3-[3-[2-[1-[3-[1-[3-(2,6-dioxo-3-piperidyl)-1-methyl-indazol-7-yl]-4-piperidyl]propyl]-4-piperidyl]ethoxy]-2-methyl-phenyl]pyridine-2-carboxylic acid], the “Ymin (24 h)” value (24 h) is on record as “A (Ymin < 50%)”. Besides, the DC50 (24 h, read-out: EC50 (24 h)) is below 100 nM.
